This is an account of results in PubChem BioAssay AID1996.

Converted amounts (≈) assume the structure as drawn.

What is called solubility (kinetic) is the concentration staying in solution when a stock, usually in DMSO, is diluted into the medium.

The conditions of the data set: buffer; pH 7.4; 200.0 µM.
Turning to `Cc1ccc(S(=O)(=O)N2CCN(c3cccc(C)c3)CC2)cc1`, the kinetic solubility is < 0.4 µg/mL. As for `Cn1c(N)c(C(=O)CSc2nnc3n2CCCCC3)c(=O)n(C)c1=O`, the figure is > 54.7 µg/mL.

With `O=c1c2[nH]cnc2n(-c2ccc(F)cc2)c(=O)n1Cc1ccccc1`, the solubility (kinetic) was > 50.4 µg/mL.

The compound `CN(C)C(CNC(=O)c1ccc(Br)cc1)c1ccco1` (configuration not stated) returned a kinetic solubility of 30.4 µg/mL (≈ 90.1 µM). For `Nc1cc(N2CCOCC2)c(Cl)cc1[N+](=O)[O-]`, the kinetic solubility is 31.4 µg/mL (≈ 122 µM). Take `CC(C)(C)c1ccc(C(=O)N2CCCC2)s1`: the kinetic solubility is > 35.6 µg/mL. As for `O=C(CN(c1ccccc1Cl)S(=O)(=O)c1ccccc1)NCc1ccccc1`, the figure is 18.7 µg/mL (≈ 45.1 µM); as for `N#Cc1ccc(C(CC(=O)O)N2Cc3ccccc3C2=O)cc1` (configuration not stated), 44 µg/mL (≈ 144 µM); as for `CC(C)OC(=O)c1ccc(COC(=O)CNC(=O)c2ccco2)cc1`, 34.8 µg/mL (≈ 101 µM). As for `COC(=O)/C(C#N)=C/c1c(-c2ccccc2)nc2n1CCS2`, the solubility (kinetic) was determined as 7.5 µg/mL (≈ 24.1 µM).

With `O=C(O)/C=C/C(=O)NC1CCCCCCCCCCC1`, the kinetic solubility is > 42.2 µg/mL. For the compound `Cc1ccc(O)c(NC(=O)c2cc(-c3ccc(F)cc3)on2)c1`, the solubility (kinetic) was < 0.3 µg/mL. As to `NC(=O)CCSC(=S)N1CCOCC1`, the solubility (kinetic) was > 35.1 µg/mL. `CCOc1ccc(CNc2ccc(N3CCCC3)cc2)cc1` had a kinetic solubility of 3.1 µg/mL (≈ 10.5 µM). On to `CC(C)OC(=O)Cc1nc2sc(-c3ccccc3)cc2c(=O)[nH]1`, for which the kinetic solubility was found to be 2 µg/mL (≈ 6.09 µM). To `Cc1ccc(NC(=O)CCc2ccc(S(=O)(=O)N3CCOCC3)cc2)c(O)c1` belongs 44.6 µg/mL (≈ 110 µM); to `Cc1ccccc1N1CCN(CCC(=O)Nc2ccc(F)cc2)CC1`, 39.9 µg/mL (≈ 117 µM); to `Cc1ccc2c(=O)[nH]c(Nc3nc(C)cc(-c4ccccc4)n3)nc2c1`, < 0.1 µg/mL. To `O=C(CCc1ccccc1)NCC1OCCc2ccccc21` (configuration not stated) belongs > 44.3 µg/mL; to `Cc1cc(C)nc(NC2=NCCN2C(=S)Nc2c(C)cccc2C)n1`, 17.7 µg/mL (≈ 49.9 µM). With `OCc1cccc[n+]1CCc1ccccc1.[Br-]`, the kinetic solubility is > 44.1 µg/mL. With `COc1ccc(S(=O)(=O)NCc2ccccn2)cc1Br`, the kinetic solubility is > 53.6 µg/mL. Regarding `COc1cc2c(cc1OC)CN(C(=O)CCC(=O)c1ccc(F)cc1)CC2`, the kinetic solubility was > 55.7 µg/mL.

With `Cn1cc(Br)c(C(=O)N2CCCCCC2)n1`, the solubility (kinetic) is > 42.9 µg/mL. `CSc1nccc(NC(=O)c2ccc(C(C)(C)C)cc2)n1`: the solubility (kinetic) worked out at 4.2 µg/mL (≈ 13.9 µM). The compound `O=C(OCC(=O)N1CCCCCC1)c1ccc(F)cc1F` yielded a solubility (kinetic) of 44.4 µg/mL (≈ 149 µM). Regarding `CC(CC(=O)O)CC(=O)Nc1ccc(Br)cc1` (configuration not stated), the solubility (kinetic) was > 45 µg/mL. Take `CC(=O)OCC[N+](C)(C)C.[O-][Cl+3]([O-])([O-])[O-]`: the kinetic solubility was > 36.8 µg/mL.

In the case of `O=[N+]([O-])c1cc(Cl)ccc1Nc1ccccc1`, the kinetic solubility was < 0.3 µg/mL. In the case of `Cc1cc(C)n2nc(SC(C)C(=O)N3CC(C)OC(C)C3)nc2n1` (configuration not stated), the solubility (kinetic) is > 52.4 µg/mL. As for `O=C(NCc1ccc2c(c1)CCO2)Nc1cccc(C(F)(F)F)c1`, the figure is 1 µg/mL (≈ 2.97 µM); as for `Cc1c(Cl)cccc1Nc1ccccc1C(=O)O`, > 39.3 µg/mL; as for `O=C(Nc1nc2ccccc2[nH]1)c1cccc(Br)c1`, 0.6 µg/mL (≈ 1.9 µM). As for `OC[C@H]1O[C@@H](n2cnc3c(NC4CCCC4)ncnc32)[C@H](O)[C@@H]1O`, the figure is > 50.3 µg/mL. As for `CCC(=O)N1CCCc2ccccc21`, the kinetic solubility came to 22.4 µg/mL (≈ 118 µM). Take `COc1ccc(Cl)cc1NC(=O)CN(C)C(=O)c1cccc(S(=O)(=O)N2CCN(C)CC2)c1`: the kinetic solubility was 67.4 µg/mL (≈ 136 µM). To `CC(=O)N/C(=C\c1ccccc1)C(=O)OCC(=O)Nc1ccc(C)c(S(=O)(=O)N(C)C)c1` belongs 56.9 µg/mL (≈ 124 µM); to `c1cc2c(cc1NC1CCCCCC1)OCO2`, 5.9 µg/mL (≈ 25.3 µM); to `O=S(=O)(Nc1ccccc1)c1ccc(NS(=O)(=O)c2cccs2)cc1`, 34.4 µg/mL (≈ 87.2 µM).

As to `O=C(Nc1cccnc1)c1ccc2ccccc2c1O`, the solubility (kinetic) was found to be 36.9 µg/mL (≈ 140 µM). As for `Cc1c(C)n(Cc2ccccc2)c2ncnc(NCCCO)c12`, the figure is < 0.2 µg/mL.

For `CC(=O)Cc1nsc(NC(=O)c2ccc(F)cc2)n1`, the solubility (kinetic) is > 41.9 µg/mL.

For the compound `COc1ccccc1CCNC(=O)c1ccc(Br)s1`, the solubility (kinetic) came to 29 µg/mL (≈ 85.2 µM). `CC1CCN(C(=O)COC(=O)CCC(=O)c2ccc(Cl)cc2)CC1` returned a solubility (kinetic) of 49.8 µg/mL (≈ 142 µM). With `CC(C)Sc1nc2ncnc(N)c2[nH]1`, the kinetic solubility was > 31.4 µg/mL. Regarding `NC(=O)COC(=O)CNC(=O)c1sc2ccccc2c1Cl`, the solubility (kinetic) was 44.8 µg/mL (≈ 137 µM).

`Cc1cc(C)c(C)c(S(=O)(=O)N2CCN(C(=O)c3ccco3)CC2)c1C` returned a solubility (kinetic) of 4.1 µg/mL (≈ 10.9 µM). As for `Cc1cc(C)cc(CC2CC(=O)N(c3cc(C)ccc3C)C2=O)c1` (configuration not stated), the figure is 17.5 µg/mL (≈ 54.4 µM).

Turning to `C/C(Nc1ccccc1C(F)(F)F)=C1/CCOC1=O`, the kinetic solubility worked out at 18.7 µg/mL (≈ 68.9 µM). As to `CCOC(=O)C(=CNc1ccc(C#N)cc1)C(=O)OCC`, the solubility (kinetic) is > 43.2 µg/mL. To `O=C(/C=C/c1ccccc1[N+](=O)[O-])N1CCOCC1` belongs > 39.3 µg/mL; to `Cn1cnc2cc(NCc3ccc(Cl)cc3)ccc21`, > 40.8 µg/mL.
